Test systems include IGROV1 ovarian; HL-60(TB) leukemia; SK-MEL-5 melanoma; OVCAR-5 ovarian; SNB-75 CNS; HCC-2998 colon; U251 CNS; MCF7 breast; OVCAR-3 ovarian; A549 NSCLC; MALME-3M melanoma; MOLT-4 leukemia; HT29 colon; HCT-116 colon; OVCAR-8 ovarian; LOX IMVI melanoma; A498 renal; SF-539 CNS; SK-OV-3 ovarian.
Common to all, as to experiment: DTP human tumour cell line panel, 48 h

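All cell lines were grown in 96-well plates and treated with compound for 48 hours. TGI marks complete inhibition of growth.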 Bounds are passed on as bounds.

With `O=[N+]([O-])c1ccc(C2=NOC(c3ccccc3)N2C23CC4CC(CC(C4)C2)C3)cc1` (configuration not stated), the TGI in the assay on IGROV1 ovarian was 72.5 µM; with HL-60(TB) leukemia, over 100 µM; with SK-MEL-5 melanoma it was 38.4 µM; with OVCAR-5 ovarian, 53.2 µM; in the assay with SNB-75 CNS, 63.7 µM; with HCC-2998 colon it was over 100 µM. The TGI with U251 CNS is over 100 µM; in the assay with MCF7 breast, 60.1 µM; with OVCAR-3 ovarian, 50.1 µM; with A549 NSCLC, 96.7 µM; with MALME-3M melanoma, 85.5 µM; in the assay on MOLT-4 leukemia, 37.8 µM. In addition, the concentration for total growth inhibition (TGI) was 44.6 µM in the assay with HT29 colon; 63.9 µM in the assay with HCT-116 colon; 48.4 µM in the assay on OVCAR-8 ovarian; 29.3 µM in the assay with LOX IMVI melanoma; over 100 µM in the assay on A498 renal; over 100 µM in the assay on SF-539 CNS. The TGI with SK-OV-3 ovarian is over 100 µM.

Take `O=[N+]([O-])c1ccc(C2Nn3c(nnc3-c3cccc([N+](=O)[O-])c3)S2)cc1` (configuration not stated): the TGI in the assay with IGROV1 ovarian, with HL-60(TB) leukemia, in the assay with SK-MEL-5 melanoma, in the assay with OVCAR-5 ovarian, with SNB-75 CNS and in the assay with HCC-2998 colon was over 100 µM in each case. Also, the total growth inhibition concentration (TGI) with U251 CNS, in the assay on MCF7 breast, with OVCAR-3 ovarian, with A549 NSCLC, in the assay on MALME-3M melanoma and with MOLT-4 leukemia was over 100 µM throughout. Moreover, the TGI with HT29 colon, in the assay on HCT-116 colon, with OVCAR-8 ovarian, in the assay on LOX IMVI melanoma, in the assay with A498 renal and in the assay with SF-539 CNS was over 100 µM throughout. In the assay with SK-OV-3 ovarian, this molecule gave a TGI of over 100 µM.

`COC(=O)C1=C(N)C2=C(N)Oc3ccccc3C2CC1=C(C#N)C#N` (configuration not stated): the concentration for total growth inhibition (TGI) is 48.4 µM in the assay on IGROV1 ovarian; over 100 µM in the assay on HL-60(TB) leukemia; 52.7 µM with SK-MEL-5 melanoma; 81.7 µM with OVCAR-5 ovarian; 68.6 µM with SNB-75 CNS; 32.9 µM in the assay on HCC-2998 colon. The TGI with U251 CNS was over 100 µM; with MCF7 breast it was 93.1 µM; with OVCAR-3 ovarian, over 100 µM; in the assay with A549 NSCLC it was over 100 µM; in the assay on MALME-3M melanoma, 58.1 µM; in the assay on MOLT-4 leukemia, over 100 µM. Further, the concentration for total growth inhibition (TGI) in the assay on HT29 colon came to 53.3 µM; in the assay with HCT-116 colon, 99.2 µM; in the assay with OVCAR-8 ovarian it was 55.7 µM; with LOX IMVI melanoma, 44.2 µM; in the assay with A498 renal, 68.6 µM; in the assay with SF-539 CNS it was 71.2 µM. The molecule also registered a TGI with SK-OV-3 ovarian of over 100 µM.

Turning to `O=c1c2ccccc2nc(-c2ccccc2)n1/N=C/c1ccccc1[N+](=O)[O-]`, the concentration for total growth inhibition (TGI) with IGROV1 ovarian was over 100 µM; in the assay on HL-60(TB) leukemia, over 100 µM; with SK-MEL-5 melanoma it was over 100 µM; with OVCAR-5 ovarian, over 100 µM; in the assay on SNB-75 CNS it was 34.2 µM; in the assay on HCC-2998 colon it was over 100 µM. Moreover, the concentration for total growth inhibition (TGI) with U251 CNS was over 94.8 µM; with MCF7 breast it was over 100 µM; in the assay on OVCAR-3 ovarian, over 100 µM; in the assay on A549 NSCLC, over 100 µM; with MALME-3M melanoma, over 100 µM; in the assay on MOLT-4 leukemia, over 100 µM. Also, the TGI in the assay on HT29 colon, in the assay with HCT-116 colon, in the assay with OVCAR-8 ovarian, with LOX IMVI melanoma, in the assay with A498 renal and in the assay with SF-539 CNS was over 100 µM in each case. This molecule came in with a TGI with SK-OV-3 ovarian of over 100 µM.

With `COc1ccc(NC(=O)CSc2nc(C)nc3c2sc(=S)n3-c2ccccc2)cc1`, the total growth inhibition concentration (TGI) was over 10 µM in the assay with IGROV1 ovarian; over 10 µM in the assay on HL-60(TB) leukemia; over 10 µM in the assay with SK-MEL-5 melanoma; over 10 µM in the assay on OVCAR-5 ovarian; 8.21 µM in the assay with SNB-75 CNS; over 10 µM in the assay with HCC-2998 colon. In addition, the TGI in the assay with U251 CNS, in the assay with MCF7 breast, in the assay with OVCAR-3 ovarian, in the assay with A549 NSCLC, in the assay with MALME-3M melanoma and in the assay with MOLT-4 leukemia was over 10 µM throughout. Further, the TGI is over 10 µM in the assay on HT29 colon; over 10 µM with HCT-116 colon; over 10 µM in the assay on OVCAR-8 ovarian; over 10 µM in the assay with LOX IMVI melanoma; over 10 µM with A498 renal; 4.97 µM in the assay with SF-539 CNS. Besides, the TGI with SK-OV-3 ovarian is over 10 µM.

Take `O=C(CNc1ccc([N+](=O)[O-])cc1)Nn1c(-c2ccccc2)nc2ccccc2c1=O`: the TGI in the assay with IGROV1 ovarian was determined as 12.9 µM; in the assay with HL-60(TB) leukemia, 14 µM; in the assay with SK-MEL-5 melanoma, 2.61 µM; in the assay on OVCAR-5 ovarian, 16.3 µM; with SNB-75 CNS, 11.3 µM; in the assay with HCC-2998 colon it was 22.6 µM. The total growth inhibition concentration (TGI) in the assay on U251 CNS is 4.47 µM; in the assay on MCF7 breast it was 7.08 µM; in the assay with OVCAR-3 ovarian, 20.4 µM; with A549 NSCLC, 25.8 µM; in the assay on MALME-3M melanoma it was 4.82 µM; with MOLT-4 leukemia, 10.6 µM. Besides, the concentration for total growth inhibition (TGI) with HT29 colon worked out at 13.6 µM; in the assay on HCT-116 colon, 13 µM; in the assay on OVCAR-8 ovarian, 18 µM; with LOX IMVI melanoma, 2.23 µM; in the assay with A498 renal, 19.3 µM; in the assay with SF-539 CNS it was 6.61 µM. In the assay with SK-OV-3 ovarian, this molecule yielded a TGI of 14.9 µM.

For the molecule `COC(=O)c1ccccc1/C=C1\Cc2ccc3c(c2C1=O)CCC3`, the concentration for total growth inhibition (TGI) with IGROV1 ovarian, in the assay on HL-60(TB) leukemia, with SK-MEL-5 melanoma, in the assay on OVCAR-5 ovarian, with SNB-75 CNS and in the assay on HCC-2998 colon was over 100 µM throughout. For the same molecule, the total growth inhibition concentration (TGI) in the assay on U251 CNS, in the assay on MCF7 breast, with OVCAR-3 ovarian, with A549 NSCLC, with MALME-3M melanoma and in the assay on MOLT-4 leukemia was over 100 µM throughout. Besides, the TGI with HT29 colon, with HCT-116 colon, in the assay on OVCAR-8 ovarian, in the assay with LOX IMVI melanoma, with A498 renal and in the assay with SF-539 CNS was over 100 µM throughout. This molecule registered a TGI in the assay with SK-OV-3 ovarian of over 100 µM.

For `CC(=O)n1nc(-c2[nH]c(C)c(-c3nn(C(C)=O)c(=S)o3)c2C)oc1=S`, the total growth inhibition concentration (TGI) in the assay with IGROV1 ovarian, in the assay with HL-60(TB) leukemia, with SK-MEL-5 melanoma, with OVCAR-5 ovarian, in the assay on SNB-75 CNS and with HCC-2998 colon was over 100 µM in each case. In addition, the TGI in the assay on U251 CNS is over 100 µM; with MCF7 breast, over 100 µM; with OVCAR-3 ovarian, over 100 µM; in the assay with A549 NSCLC, over 100 µM; in the assay with MALME-3M melanoma, over 96.6 µM; in the assay with MOLT-4 leukemia, over 100 µM. Also, the TGI in the assay with HT29 colon, with HCT-116 colon, in the assay on OVCAR-8 ovarian, with LOX IMVI melanoma, with A498 renal and in the assay on SF-539 CNS was over 100 µM throughout. This molecule also came in with a TGI with SK-OV-3 ovarian of over 100 µM.

Broadly, the TGI is the concentration at which net growth stops.

The values are drawn from PubChem BioAssay (NCI).
